Test results taken from PMC3692431, “Anticonvulsant Activity of B2, an Adenosine Analog, on Chemical Convulsant-Induced Seizures” (PLoS ONE, 2013).

Tests used:
[1] = tested on: KA-induced seizures; assay: KA-induced seizures in mice; type: in vivo; details: KA 0.7 µg i.c.v.
Procedure: KA was dissolved in saline and the pH was adjusted to neutrality. The final concentration of KA was 0.7 µg/µl, and the convulsant dose was 1 µl (i.c.v.). […] The selective adenosine receptor antagonist DPCPX or SCH58261 was administered (i.p.) 5 min before administration of B2 or vehicle.
The left lateral ventricle (0.6 mm posterior, 1.9 mm lateral, and 2.1 mm ventral to bregma) was cannulated as described. After a 7-day recovery period, mice were injected with either B2 (1.25, 5, 20 mg/kg) or vehicle. Twenty minutes later, an intracerebroventricular injection of KA (0.7 µg/µl, 1 µl) was administered without anesthesia. The animals were then observed for a minimum of 60 min. Seizure severity was determined according to the scoring system described by Racine. At the end of the experiment, cannulae placement was verified.

[2] = target: T1, A1 adenosine receptor (Rattus norvegicus, UniProt P25099); assay: Radioligand binding, [3H]DPCPX displacement in rat cortical membranes; details: 0.2 nM [3H]DPCPX
T1 construct: from tissue; host or cells: cerebral cortex of male Wistar rats
T1 sequence (P25099 1-326): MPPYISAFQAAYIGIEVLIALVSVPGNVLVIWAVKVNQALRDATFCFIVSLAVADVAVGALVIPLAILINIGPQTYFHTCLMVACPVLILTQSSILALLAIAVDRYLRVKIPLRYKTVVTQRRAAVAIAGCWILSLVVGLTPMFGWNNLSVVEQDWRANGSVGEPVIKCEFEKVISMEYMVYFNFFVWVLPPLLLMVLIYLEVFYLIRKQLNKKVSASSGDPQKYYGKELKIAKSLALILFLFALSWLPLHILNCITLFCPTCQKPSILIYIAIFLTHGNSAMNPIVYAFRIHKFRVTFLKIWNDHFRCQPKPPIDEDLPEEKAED

[3] = target: T2, recombinant human adenosine A2A receptor (Homo sapiens, UniProt P29274); assay: cAMP accumulation assay in CHO cells expressing A2A receptor; type: cell-based; details: CHO cells expressing human A2A receptors; read-out: EC50, elevation of cAMP levels
T2 construct: expressed in transfected cells; host or cells: CHO cells (provided by Professor R. B. Su)
T2 sequence (P29274 whole entry): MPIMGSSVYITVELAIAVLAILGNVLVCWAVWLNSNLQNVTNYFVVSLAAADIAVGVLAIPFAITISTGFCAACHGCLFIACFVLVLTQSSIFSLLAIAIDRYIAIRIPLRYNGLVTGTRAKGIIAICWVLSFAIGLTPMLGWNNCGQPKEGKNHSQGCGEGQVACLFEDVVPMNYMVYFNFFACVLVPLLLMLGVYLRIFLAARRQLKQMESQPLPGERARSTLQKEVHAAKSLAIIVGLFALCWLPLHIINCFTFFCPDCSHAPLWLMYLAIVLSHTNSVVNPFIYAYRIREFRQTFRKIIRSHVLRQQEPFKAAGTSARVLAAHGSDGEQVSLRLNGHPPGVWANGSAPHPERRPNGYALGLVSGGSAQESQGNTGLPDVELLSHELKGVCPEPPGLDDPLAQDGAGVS
Procedure: Chinese hamster ovary (CHO) cells expressing recombinant human A1/A2A receptors (provided by Professor R. B. Su of the Institute of Pharmacology and Toxicology, Academy of Military Medical Sciences, Beijing, China) were cultured in Dulbecco’s Modified Eagles Medium with the F12 nutrient mixture (DMEM/F12) containing no nucleosides, and with 10% fetal calf serum, penicillin (100 U/ml), streptomycin (100 µg/ml), L-glutamine (2 mM), and Geneticin at 37°C in a 5% CO2/95% atmosphere. The cells used to determine cAMP levels had viability >95%, as assessed by trypan blue exclusion.
Intracellular cyclic adenosine monophosphate (cAMP) levels were measured using a competitive protein binding method. To measure A1/A2A receptor-mediated accumulation of cAMP, cells were grown as confluent monolayers in 24-well cluster dishes. The cells were washed twice with 2 mL of medium containing 20 mM HEPES that had been prewarmed to 37°C, pH 7.4. The cells were then preincubated for 15 min in 0.4 mL fresh medium containing 30 µM of the cAMP phosphodiesterase inhibitor rolipram. B2 was added in 0.1 mL of medium and incubations continued for 15 min. The reaction was then terminated by removing the supernatant, and cells were lysed with the addition of 500 µl of 0.1 M ice-cold HCl. The cell lysate was centrifuged (4,000×g) at 4°C for 10 min. […] Bound radioactivity was measured by liquid scintillation spectrometry.

[4] = tested on: c-Fos expression in the hippocampus; assay: PTZ-induced c-Fos expression, immunohistochemistry; type: in vivo, mice; details: B2 5 mg/kg, PTZ 85 mg/kg, 2 h
Procedure: Mice were injected with either B2 (5 mg/kg) or vehicle 20 min before administration of PTZ (85 mg/kg). Two hours later, mice were either anesthetized for c-Fos analysis using immunohistochemistry or decapitated or western blotting.
Mice were anesthetized with chloral hydrate (400 mg/kg, i.p.) and perfused through the heart with saline solution followed by ice-cold 4% paraformaldehyde (PFA) in 0.1 M phosphate buffer (pH 7.4). Their brains were then removed, post-fixed in 4% PFA for 24 h at 4°C, and immersed in 30% sucrose at 4°C until they sank. Thereafter, coronal sections (30 µm) were cut using a freezing microtome (Leica RM2125).
Sections were immunostained using previously described methods. Sections were first immersed in 0.3% Triton X-100 for 10 min at room temperature, and then in 3% hydrogen peroxide for 10 min to quench endogenous peroxidase activity. Sections were then rinsed twice in 10 mM phosphate-buffered saline (pH 7.2) containing 0.3% Triton X-100. This was followed by incubation with diluted normal blocking serum (Vector Elite ABC kit) for 30 min and then 1∶800 rabbit polyclonal anti-c-Fos (primary) antibodies overnight at 4°C. Biotinylated secondary antibody solutions and VectaStain® Elite ABC reagents were applied. The peroxidase reaction was visualized using DAB with nickel ammonium sulfate for black staining. Sections were mounted, dehydrated and cover slipped. […]

[5] = tested on: PC12 cell; parameters: method as in PMID 22242450; details: cited from earlier work

## COc1cc(CNc2ncnc3c2ncn3[C@@H]2O[C@H](CO)[C@@H](O)[C@H]2O)ccc1O [B2, N^6-(3-methoxyl-4-hydroxybenzyl) adenine riboside]
[1]; B2 1.25 mg/kg i.p.
  average seizure duration: 5.3 ± 0.8 min
[1]; B2 5 mg/kg i.p.
  average seizure duration: 3.7 ± 0.7 min
[1]; B2 20 mg/kg i.p.
  average seizure duration: 3.3 ± 1.0 min
[2]
  Ki: 420 nM
[3]
  EC50: 320 nM
[4]
  effect on PTZ-induced increase of c-Fos expression in the CA2/3 region: minor effect
  effect on PTZ-induced increase of c-Fos expression in the dentate gyrus and CA1: significantly reversed
[5]
  PC12 cell survival in serum deprivation-induced apoptosis: remarkably increased
